These results are taken from ChEMBL document CHEMBL4251700, “Novel Staphyloxanthin Inhibitors with Improved Potency against Multidrug Resistant Staphylococcus aureus” (ACS Med Chem Lett, 2018).

Residue numbers refer to the chain shown, from its start. Activity calls are given as the source filed them. No cut-off for these calls is given here.

By IC50 is commonly meant the concentration at which inhibition is half-maximal. A word on the solubility: it is the concentration that dissolves in the medium under given conditions. Usually CC50 stands for the concentration that lowers cell viability or growth by half.

The test system of one series is Trichophyton verrucosum. The series can be described thus: Antifungal activity against Trichophyton verrucosum after 7 days. Type of series: functional, organism-based.
Series [1] concerns the target T1, 4,4'-diapophytoene desaturase (4,4'-diaponeurosporene-forming) (Staphylococcus aureus (strain Mu50 / ATCC 700699), UniProt Q99R76).
T1 sequence (Q99R76 whole entry): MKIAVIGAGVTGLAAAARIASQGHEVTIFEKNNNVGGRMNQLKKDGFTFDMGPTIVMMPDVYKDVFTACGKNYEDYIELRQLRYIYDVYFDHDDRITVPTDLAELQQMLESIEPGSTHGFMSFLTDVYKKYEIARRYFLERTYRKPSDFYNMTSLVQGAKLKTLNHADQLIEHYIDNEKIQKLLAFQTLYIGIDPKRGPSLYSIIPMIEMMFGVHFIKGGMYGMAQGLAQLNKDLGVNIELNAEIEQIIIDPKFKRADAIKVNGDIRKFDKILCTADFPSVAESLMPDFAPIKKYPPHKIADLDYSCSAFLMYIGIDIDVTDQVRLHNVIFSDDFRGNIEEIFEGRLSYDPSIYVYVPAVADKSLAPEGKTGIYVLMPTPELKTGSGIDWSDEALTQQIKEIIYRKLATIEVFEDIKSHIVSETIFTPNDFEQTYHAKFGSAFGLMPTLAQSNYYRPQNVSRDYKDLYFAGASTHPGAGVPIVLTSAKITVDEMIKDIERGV
The series can be described thus: Inhibition of CrtN in vancomycin-intermediate Staphylococcus aureus Mu50 assessed as reduction in staphyloxanthin levels after 48 hrs by spectrophotometric method-based pigment inhibition assay. More on the design: species or system Staphylococcus aureus subsp. aureus Mu50.

Series [2] has as its target T2, 4,4'-diapophytoene desaturase (4,4'-diaponeurosporene-forming) (Staphylococcus aureus (strain MW2), UniProt Q8NUQ6).
T2 sequence (Q8NUQ6 whole entry): T1 sequence (Q99R76 whole entry) with R500Q
The series can be described thus: Inhibition of CrtN in methicillin-resistant Staphylococcus aureus USA400 MW2 assessed as reduction in staphyloxanthin levels after 48 hrs by spectrophotometric method-based pigment inhibition assay. More on the design: species or system Staphylococcus aureus subsp. aureus MW2.

Series [3] in a line: Solubility of the compound in water at 10 mg measured after 24 hrs by HPLC method. Type of series: physicochemical.
Series [4] concerns the target Voltage-gated inwardly rectifying potassium channel KCNH2 (Homo sapiens, UniProt Q12809). The series can be described thus: Inhibition of recombinant human ERG expressed in CHO cells at -80 mV holding potential measured after 3 minutes by automated whole cell patch clamp Qpatch method. Type of series: cell-based.
Series [5] can be described thus: Cytotoxicity against human HepG2 cells after 72 hrs by CCK8 assay. Type of series: cell-based. (In general: Tetrazolium dyes change colour on reduction, which living cells bring about.)
For series [6], the system named is Staphylococcus aureus. The series can be described thus: Antibacterial activity against Staphylococcus aureus Newman infected in BALB/c mouse assessed as reduction of bacterial burden in liver at 0.1 mg, ip bid for 3.5 days administered 6 hrs post bacterial infection measured 84 hrs post infection relative to control. More on the design: scale not given: the % may be the effect or the level left.

The test system of series [7] is Staphylococcus aureus. The series can be described thus: Growth inhibition of Staphylococcus aureus Newman at 0.2 mM incubated overnight measured at 30 mins interval. Type of series: organism-based. Particulars: 0.5 h, 200 µM.
The test system of series [8] is Staphylococcus aureus. The series can be described thus: Antibacterial activity against linezolid-resistant Staphylococcus aureus NRS271 infected in BALB/c mouse assessed as reduction of bacterial burden in heart at 0.4 mg, ip bid administered at 24 hrs prior to bacterial infection dosed at 12 intervals for 4.5 days.
Series [9] deals with Staphylococcus aureus. The series can be described thus: Growth inhibition of methicillin-resistant Staphylococcus aureus USA300 LAC at 0.2 mM incubated overnight measured at 30 mins interval. The series is classed as organism-based. The conditions noted are these: 0.5 h, 200 µM.
Series [10] concerns the target T3, 4,4'-diapophytoene desaturase (4,4'-diaponeurosporene-forming) (Staphylococcus aureus (strain MW2)) (UniProt Q8NUQ6).
T3 sequence (whole entry): T1 sequence (Q99R76 whole entry) with R500Q
The series can be described thus: Inhibition of CrtN in Staphylococcus aureus USA300 LAC assessed as H2O2-induced bacterial death by measuring reduction in bacterial survival at 1 uM preincubated for 24 hrs followed by H2O2 addition measured after 30 mins by serial dilution method. Particulars: Staphylococcus aureus subsp. aureus USA300.

Series [11] deals with Staphylococcus aureus. The series can be described thus: Induction of sensitization to immune clearance towards Staphylococcus aureus USA300 LAC infected in human whole blood assessed as bacterial killing by measuring bacterial survival after 6 hrs by serial dilution method relative to control. The series is classed as functional.
For series [12], the system named is Staphylococcus aureus. The series can be described thus: Growth inhibition of methicillin-resistant Staphylococcus aureus USA400 MW2 at 0.2 mM incubated overnight measured at 30 mins interval. Type of series: organism-based. The conditions noted are these: 0.5 h, 200 µM.
The test system of series [13] is Staphylococcus aureus. The series can be described thus: Induction of sensitization to immune clearance towards Staphylococcus aureus Mu50 infected in human whole blood assessed as bacterial killing by measuring bacterial survival after 6 hrs by serial dilution method relative to control. Type of series: functional.
The test system of series [14] is Staphylococcus aureus. The series can be described thus: Antibacterial activity against vancomycin-intermediate Staphylococcus aureus Mu50 infected in BALB/c mouse assessed as reduction of bacterial burden in liver at 0.1 mg, ip bid for 3.5 days administered 6 hrs post bacterial infection measured 84 hrs post infection. Type of series: functional, organism-based.

The subject of series [15] is Staphylococcus aureus. The series can be described thus: Antibacterial activity against Staphylococcus aureus Newman infected in BALB/c mouse assessed as reduction of bacterial burden in heart at 0.4 mg, ip bid administered at 12 hrs prior to bacterial infection dosed at 12 intervals for 4.5 days relative to control. Type of series: functional. More on the design: scale not given: the % may be the effect or the level left.

Another series deals with Trichophyton rubrum. The series can be described thus: Antifungal activity against Trichophyton rubrum after 7 days by broth microdilution method. Type of series: functional, organism-based. (In general: Dilution methods test growth across graded concentrations, often in twofold steps.)
The test system of series [16] is Staphylococcus aureus. The series can be described thus: Induction of sensitization to immune clearance towards Staphylococcus aureus USA400 MW2 infected in human whole blood assessed as bacterial killing by measuring bacterial survival after 6 hrs by serial dilution method relative to control. Type of series: functional.
Series [17] concerns Staphylococcus aureus. The series can be described thus: Antibacterial activity against vancomycin-intermediate Staphylococcus aureus Mu50 infected in BALB/c mouse assessed as reduction of bacterial burden in liver at 0.1 mg, ip bid administered at 12 hrs prior to bacterial infection dosed at 12 intervals for 4.5 days. Type of series: functional, organism-based.
Series [18] concerns Staphylococcus aureus. The series can be described thus: Antibacterial activity against linezolid-resistant Staphylococcus aureus NRS271 infected in BALB/c mouse assessed as reduction of bacterial burden in liver at 0.1 mg, ip bid administered at 12 hrs prior to bacterial infection dosed at 12 intervals for 4.5 days. The series is classed as functional, organism-based.
The test system of series [19] is Staphylococcus aureus. The series can be described thus: Antibacterial activity against linezolid-resistant Staphylococcus aureus NRS271 infected in BALB/c mouse assessed as reduction of bacterial burden in heart at 0.1 mg, ip bid administered at 24 hrs prior to bacterial infection dosed at 12 intervals for 4.5 days.
In series [20] the test system is Trichophyton mentagrophytes. The series can be described thus: Antifungal activity against Trichophyton mentagrophytes after 7 days. Type of series: functional, organism-based.

Chain of Voltage-gated inwardly rectifying potassium channel KCNH2 (Q12809 whole entry): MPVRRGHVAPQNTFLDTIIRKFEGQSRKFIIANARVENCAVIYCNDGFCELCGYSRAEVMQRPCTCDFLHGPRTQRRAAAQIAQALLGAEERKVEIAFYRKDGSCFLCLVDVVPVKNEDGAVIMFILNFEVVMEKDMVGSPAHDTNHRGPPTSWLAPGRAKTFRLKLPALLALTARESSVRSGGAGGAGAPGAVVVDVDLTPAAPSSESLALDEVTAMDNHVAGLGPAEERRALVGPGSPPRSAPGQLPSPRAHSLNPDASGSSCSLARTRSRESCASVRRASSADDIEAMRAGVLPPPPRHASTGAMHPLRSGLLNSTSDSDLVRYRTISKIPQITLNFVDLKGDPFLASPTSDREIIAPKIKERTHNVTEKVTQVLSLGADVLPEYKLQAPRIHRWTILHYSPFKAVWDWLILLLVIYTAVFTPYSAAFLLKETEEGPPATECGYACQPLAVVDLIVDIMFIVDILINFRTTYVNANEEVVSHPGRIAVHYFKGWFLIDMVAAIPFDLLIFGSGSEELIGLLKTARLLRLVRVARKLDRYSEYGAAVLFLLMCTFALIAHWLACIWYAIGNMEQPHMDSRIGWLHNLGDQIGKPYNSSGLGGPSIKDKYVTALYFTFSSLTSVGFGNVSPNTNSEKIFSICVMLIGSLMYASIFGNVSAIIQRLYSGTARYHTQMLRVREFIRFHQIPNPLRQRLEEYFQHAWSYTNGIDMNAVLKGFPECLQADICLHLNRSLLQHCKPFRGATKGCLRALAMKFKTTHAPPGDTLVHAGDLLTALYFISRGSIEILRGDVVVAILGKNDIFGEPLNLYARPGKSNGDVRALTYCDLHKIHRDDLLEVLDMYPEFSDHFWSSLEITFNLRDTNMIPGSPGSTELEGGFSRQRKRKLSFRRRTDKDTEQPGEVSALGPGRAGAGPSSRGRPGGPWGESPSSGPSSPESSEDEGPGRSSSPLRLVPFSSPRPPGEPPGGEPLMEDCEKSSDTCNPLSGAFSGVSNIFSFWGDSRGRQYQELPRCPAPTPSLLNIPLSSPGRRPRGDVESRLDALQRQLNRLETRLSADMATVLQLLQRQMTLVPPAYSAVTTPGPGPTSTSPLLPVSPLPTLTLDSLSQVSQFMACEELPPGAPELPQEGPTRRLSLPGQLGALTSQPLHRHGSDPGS

Regarding `CN(C/C=C/C=C/c1ccc(C(F)(F)F)cc1)Cc1ccc2c(c1)OCCO2.Cl`, the outcome (in the series with Trichophyton verrucosum; in the series on Trichophyton rubrum; in series [20]) was inactive. The 50% inhibitory concentration (IC50) in [1] is less than 0.0001 µM; in series [2] it was 0.0065 µM; in series [4], 12.1 µM. In addition, the solubility at 24 h in series [3] was found to be 7900 µg/mL. In [5], this molecule displayed a CC50 at 72 h of 67.8 µM. For the same molecule, the Activity in the series with Staphylococcus aureus [6] came out at 99%; in the series on Staphylococcus aureus [15], 89.01%. The “growth inhibition (GI)” value with Staphylococcus aureus [7], in the series on Staphylococcus aureus [9] and in the series on Staphylococcus aureus [12] was “Non-Toxic” in each case. Also, the result with Staphylococcus aureus [8], in the series on Staphylococcus aureus [14], in the series on Staphylococcus aureus [17], in the series on Staphylococcus aureus [18] and in the series with Staphylococcus aureus [19] was Active. Besides, in series [10], the inhibition result is “Active”. Further, the Survival in the series with Staphylococcus aureus [11], in the series with Staphylococcus aureus [13] and in the series with Staphylococcus aureus [16] was less than 0.5% each time.
